Converted amounts (≈) assume the structure as drawn. Where two headings read alike, the source gives them in different places.
Tests used:
[1] = tested on: Providencia rettgeri GN466; test: Minimum growth-inhibitory concentration, standard serial dilution assay; assay type: cell-based
Description: (§1) That is, a test was conducted to measure the minimum growth-inhibitory concentrations (MIC, mcg/ml) of these compounds against some microorganisms using a standard serial dilution assay method.

[2] = tested on: Providencia sp. 2991; test: as above; assay type: cell-based
Description: as §1

[3] = tested on: Escherichia coli; test: Antibacterial activity of formycin A against Escherichia coli on bouillon-agar medium, with and without test compound; assay type: cell-based; conditions: for growth of Escherichia coli where test compound had permeated medium containing formycin A: test compound 1 mcg/ml, formycin A 100 mcg/ml in bouillon-agar medium, about 37°C
Description: In this test, an aqueous solution of each of the compounds to be tested, i.e. FCF, e-FCF, Ara-FCF or Ara-e-FCF, at a concentration of 1 mcg/ml, was added in the form of several drops on the surface of a bouillon-agar medium containing formycin A at a concentration of 100 mcg/ml to form a circular film of the said aqueous solution thereon. Then, the medium was allowed to stand to make the test compound permeate into the bouillon-agar layer. Subsequently, a strain of Escherichia coli was inoculated on the overall surface of said medium and the inoculated medium was incubated at about 37°C.

[4] = molecular target: T1, adenosine deaminase (Bos taurus, UniProt P56658); test: Enzyme-inhibitory activity against adenosine deaminase (optical density at 265 nm); assay type: biochemical
T1 construct: purchased Sigma Chemical Type VI
T1 sequence (P56658 1-363): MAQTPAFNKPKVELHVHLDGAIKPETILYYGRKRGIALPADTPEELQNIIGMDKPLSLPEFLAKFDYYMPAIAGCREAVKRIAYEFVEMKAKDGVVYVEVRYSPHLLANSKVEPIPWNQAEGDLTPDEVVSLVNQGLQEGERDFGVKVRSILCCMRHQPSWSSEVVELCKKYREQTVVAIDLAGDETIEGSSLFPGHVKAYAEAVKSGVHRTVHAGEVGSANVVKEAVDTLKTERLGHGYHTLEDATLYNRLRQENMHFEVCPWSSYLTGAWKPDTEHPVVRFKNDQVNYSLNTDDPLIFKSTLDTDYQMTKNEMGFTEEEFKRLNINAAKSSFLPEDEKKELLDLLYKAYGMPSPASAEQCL
Description: The test of evaluating the inhibitory activity of each of the compounds against adenosine deaminase was carried out as given below.
Optical density of the reaction mixture obtained was measured with time (measured at the wave length of 265 nm), and the IC50 value of the tested compound against adenosine deaminase was calculated on the basis of decreases in the measured values of the optical density.

[5] = tested on: mice; test: Acute toxicity in mice, intraperitoneal administration; assay type: in vivo; conditions: 100 mg/kg
[6] = Stability in aqueous hydrochloric acid solution (pH 2), followed by thin-layer silica gel chromatography; assay type: physicochemical; conditions: water acidified with hydrochloric acid, pH 2, 25°C
Description: The test was carried out in accordance with the following method.
An aqueous solution (pH 2) of the test compound dissolved in water as acidified with hydrochloric acid was kept at 25°C, from which samples were taken out with time for analizing by thin-layer silica gel chromatography using acetonitrile-0.2 M aqueous ammonium chloride (3:1) as the development solvent. The spot of the test compound on the silica gel thin-layer was detected by using UV method, staining tests with conc. sulfuric acid and coloring tests with aqueous ammonium molybdate sulfuric acid solution, in combination, whereby the time (in hour) required for the test compound to disappear completely in the aqueous hydrochloric acid solution was determined. By way of comparison, coformycin and pentostatin were also tested by the same method.

[7] = tested on: mice; conditions: intravenous administration, cited from earlier work
[8] = phosphate buffer 0.05 M, pH 7.4, 25°C, 5 minutes pre-incubation, substrate adenosine, read-out: Enzyme-inhibitory activity, IC50

Structure (SMILES)	growth of Escherichia coli where test compound had permeated medium containing formycin A [3]	IC50 [4, 8]	Time (hours) required for complete disappearance of test compound in aqueous solution at pH 2 at 25°C [6]	other results
NC1O[C@H](CO)[C@@H](O)[C@@H]1F (stereo partly drawn) [2-deoxy-2-fluoro-α,β-D-arabinofuranosyl amine]				MIC [1]: 50 µg/mL (≈ 331 µM); MIC [2]: 100 µg/mL (≈ 662 µM)
NC1O[C@H](CO)[C@@H](O)[C@H]1F (stereo partly drawn) [2-deoxy-2-fluoro-α,β-D-ribofuranosyl amine]				MIC [1]: 50 µg/mL (≈ 331 µM); MIC [2]: 100 µg/mL (≈ 662 µM)
OC[C@H]1O[C@@H](n2cnc3c2N=CNC[C@H]3O)[C@@H](F)[C@@H]1O [Ara-FCF, (8R)-3-(2-deoxy-2-fluoro-β-D-arabinofuranosyl)-3,6,7,8-tetrahydroimidazo [4,5-d][1,3]diazepin-8-ol]	the bacteria could not grow to form the circular inhibition zone	0.77 nM	15 hours	acute toxicity (death of mice) [5]: no death of the mice
OC[C@H]1O[C@@H](n2cnc3c2N=CNC[C@@H]3O)[C@@H](F)[C@@H]1O [Ara-e-FCF, (8S)-3-(2-deoxy-2-fluoro-β-D-arabinofuranosyl)-3,6,7,8-tetrahydroimidazo[4,5-d][1,3]diazepin-8-ol]	the bacteria could not grow to form the circular inhibition zone	2200 nM		
OC[C@H]1O[C@@H](n2cnc3c2N=CNC[C@H]3O)[C@H](O)[C@@H]1O [Coformycin, (8R)-3-(β-D-ribofuranosyl)-3,6,7,8-tetrahydroimidazo[4,5-d][1,3]diazepin-8-ol]			10 hours	IC50 [4]: 1.7 nM; acute toxicity (death of mice) ([7]; 12.5 mg/kg): cause the death of mice
OC[C@H]1O[C@@H](n2cnc3c2N=CNC[C@H]3O)[C@H](F)[C@@H]1O [FCF, (8R)-3-(2-deoxy-2-fluoro-β-D-ribofuranosyl)-3,6,7,8-tetrahydroimidazo [4,5-d][1,3]diazepin-8-ol]	the bacteria could not grow to form the circular inhibition zone	17 nM	15 hours	
OC[C@H]1O[C@@H](n2cnc3c2NC=NC[C@H]3O)C[C@@H]1O [Pentostatin, 2'-deoxycoformycin, reference compound]			1 hours	acute toxicity (body weight of tested mice) ([7]; 25 mg/kg): cause the decrease in the body weight of tested mice
OC[C@H]1O[C@@H](n2cnc3c2N=CNC[C@@H]3O)[C@H](F)[C@@H]1O [e-FCF, (8S)-3-(2-deoxy-2-fluoro-β-D-ribofuranosyl)-3,6,7,8-tetrahydroimidazo [4,5-d][1,3]diazepin-8-ol]	the bacteria could not grow to form the circular inhibition zone	100 nM		
Nc1ncnc2c([C@@H]3O[C@H](CO)[C@@H](O)[C@H]3O)n[nH]c12 [formycin A]				antibacterial activity against Escherichia coli ([3]; formycin A alone at 100 mcg/ml): no antibacterial activity
